Test results taken from publication PMC11720353, “Clove Essential Oil as a Source of Antitumoral Compounds Capable of Crossing the Blood–Brain Barrier: A Focus on the Effects of β-Caryophyllene and Eugenol in a Glioblastoma Cell Line” (International Journal of Molecular Sciences, 2024).

Key:
U87 cells [1] = experiment: Cell cycle analysis (PI/RNase, flow cytometry); assay type: cell-based, human; settings: BCA 125 µM alone or with EU 200 µM, 24 h
Procedure: (§1) Analysis of the effect of BCA and/or EU on the cell cycle was assessed with flow cytometry using propidium iodide (PI)/RNase solution, according to the manufacturer’s protocol (Immunostep, Salamanca, Spain), as previously described. HMC3 and U87 cells (30 × 10^4 cells/well) were seeded in triplicate into 6-well plates and incubated for 24 h at 37 °C and 5% CO2. Thereafter, the cells were treated either with EU (200 µM) or BCA (125 µM) alone or in combination (EU 200 µM + BCA 125 µM). After 24 h, the cells were detached and fixed in 70% ethanol for 60 min at 4 °C, washed twice with PBS, and then stained with 500 µL of PI/RNase solution. The results were acquired using CellQuest software and expressed as the calculated percentage of the cell population in each cell cycle phase (G0/G1, S and G2/M) according to the PI intensity.

HMC3 cells = experiment: Cell cycle analysis (PI/RNase, flow cytometry); assay type: cell-based, human; settings: EU 200 µM, BCA 125 µM, alone or in combination, 24 h
Procedure: as §1

U87 cells [2] = experiment: Clonogenic cell survival assay; assay type: cell-based, human; settings: EU 200 µM, BCA 125 µM, alone or in combination, 14 days
Procedure: An evaluation of the antiproliferative effect via clonogenic assay on the tumoral U87 cells was performed using an adapted protocol from the previously described procedure. Briefly, U87 cells (0.8 × 10^3 cells/well) were seeded into 6-well plates and incubated for 24 h. After the incubation, based on the results obtained from the cell viability assay and synergistic score, the cells were treated either with EO single compounds diluted in ethanol alone (EU 200 µM and BCA 125 µM) or in combination for 14 days with the media being changed every 2/3 days. The cells without treatment were considered the control condition. Following the incubation, the cells were washed with PBS, fixed with paraformaldehyde (PFA) and stained with 0.1% crystal violet solution. The number of colonies was counted by microscopy, and the surviving fraction (SF) was calculated as the mean colonies/number of cells seeded.

[3] = rat, in vivo, cited from earlier work
in vivo = settings: male, Sprague-Dawley, rat; for Kp at 60 min: R (ratio of concentration between CSF and bloodstream)
Procedure: Male Sprague-Dawley rats (200–250 g) were purchased from the Charles River laboratories (Calco, Italy). BCA was administered to rats by intravenous and oral routes in order to evaluate the pharmacokinetic profiles in the bloodstream and cerebrospinal fluid (CSF). For the intravenous administration, BCA EO (84% w/w BCA content) was dissolved in ethanol to obtain a final BCA concentration of 8 mg/mL. A group (n = 4) of rats, fasted for 24 h, was anesthetized during the experimental period and then received via a femoral intravenous infusion (rate = 10 μL/min; 5 min) 50 µL of the 8 mg/mL ethanolic solution (BCA dose 2 mg/kg). This dosage was chosen basing on a previous study where BCA was intravenously administered to rats at a dose of about 1.5 mg/kg as a minor component of Artemisiae argyi Folium EO (5.3% w/w). For oral administration, BCA EO was dissolved in corn oil to obtain a final BCA concentration of 20 mg/mL. A total of 500 µL of this corn oil solution was orally administered by gavage to a group (n = 4) of rats kept fasting for 24 h (BCA dose 50 mg/kg).
At the end of the intravenous and oral administrations and at fixed time points, blood samples (100 μL) were collected. Moreover, CFS samples (about 30 μL) were withdrawn using the cisternal puncture method previously described. This method requires a single needle stick and allows the collection of serial (about 30 μL) CSF samples that are virtually blood-free. A total volume of a maximum of 120 μL of CSF/rat (i.e., four 30 μL samples/rat) was collected during the experimental session, choosing the time points (n = 4) to allow the restoration of the CSF physiological volume. The CSF samples (10 μL) were immediately analyzed via HPLC (see below) for the quantification of BCA. For the BCA analysis in the bloodstream, the blood samples (n = 4) were immediately added to 200 μL of ice-cold CH3CN, then 100 μL of the internal standard dissolved in CH3CN (100 μM GER-UDCA, obtained by the conjugation of geraniol with ursodeoxycholic acid) was further inserted. The samples were centrifuged at 16,000× g for 5 min, then about 300 μL of the supernatant was withdrawn and further centrifuged. Finally, 10 μL was analyzed via HPLC (see below) for BCA quantification. A blood sample (100 μL) was collected from each rat before the administration of the compound and was used as a control. The control samples were immediately added to 300 μL of ice-cold CH3CN in the absence of the internal standard and then treated as described above.
The BCA was quantified by the HPLC method, using a chromatographic apparatus that consisted of a modular system (model LC-10 AD VD pump and model SPD-10A VP variable wavelength UV−vis detector; Shimadzu, Kyoto, Japan) and an injection valve with a 20 μL sample loop (model 7725; Rheodyne, IDEX, Torrance, CA, USA). The separations were performed on a 5 μm Hypersil BDS C-18 column (150 mm × 4.6 mm i.d.; ThermoFisher Scientific S.p.A., Milan, Italy) equipped with a guard column packed with the same Hypersil material at room temperature by injecting 10 µL of the samples into the apparatus. Data were acquired and processed using CLASS-VP software, version 7.2.1 (Shimadzu Italia, Milan, Italy), installed on a personal computer. The mobile phase consisted of an isocratic mixture of water and acetonitrile at a ratio of 10:90 (v/v), with a flow rate of 1 mL/min. The detector was set at 205 nm. The retention times obtained were 7.5 min for BCA and 5.6 min for GER-UDCA.
The chromatographic precision was evaluated by repeated analyses (n = 6) of the same sample solution containing 100 μM (20.435 µg/mL) BCA dissolved in a mixture of water and CH3CN 25:75 (v/v). The chromatographic precision, expressed as the relative standard deviation (RSD) value, was 0.84%. […]

[4] = iv, 2 mg/kg, cerebrospinal fluid (CSF)
[5] = po, 50 mg/kg, cerebrospinal fluid (CSF)

C=C1CC/C=C(\C)CC[C@@H]2[C@@H]1CC2(C)C [BCA, β-Caryophyllene]
decrease in percentage of cells in the S phase (U87 cells [1]): −49.4%
increase in percentage of cells in the G0/G1 phase (U87 cells [1]): 21.1%
effect on cell cycle (HMC3 cells): no effects
decrease of clonal growth / colony formation with respect to control (U87 cells [2]): −63.8%
oral acute LD50 ([3]; po): over 5000 mg/kg
No Observed Adverse Effect Level (NOAEL) dose [3]: 700 mg/kg
bioavailability (in vivo; F (absolute bioavailability)): 2.11 ± 0.03%
half-life (in vivo; iv, 2 mg/kg): 49.7 ± 2 min
time at which CSF concentration decreased to zero (in vivo; iv, 2 mg/kg): ≤ 150 min
time at which bloodstream concentration decreased to zero (in vivo; iv, 2 mg/kg): ≤ 180 min
AUC (in vivo; iv, 2 mg/kg, bloodstream): 108000 ng·h/mL
AUC (in vivo; [4]): 6290 ng·h/mL
Cmax (in vivo; [4]): 8000 ± 800 ng/mL
Kp at 60 min (in vivo; iv, 2 mg/kg): 0.08 ± 0.01
Kp at 30 min (in vivo; iv, 2 mg/kg, R (ratio of concentration between CSF and bloodstream) at CSF Tmax): 0.13 ± 0.01
Tmax (in vivo; [4]): 30 min
Cmax, bloodstream (in vivo; po, 50 mg/kg): 22530 ± 90 ng/mL
time at which CSF concentration decreased to zero (in vivo; po, 50 mg/kg): 120 min
time at which bloodstream concentration decreased to 0 (in vivo; po, 50 mg/kg): 300 min
R (ratio of concentration between CSF and bloodstream) at CSF Tmax (in vivo; po, 50 mg/kg, 90 min): 0.019 ± 0.002
AUC (in vivo; po, 50 mg/kg, bloodstream): 56800 ng·h/mL
AUC (in vivo; [5]): 313 ng·h/mL
Cmax (in vivo; po, 50 mg/kg, bloodstream): 22500 ± 900 ng/mL
Cmax (in vivo; [5]): 420 ± 40 ng/mL
Kp at 60 min (in vivo; po, 50 mg/kg): ~0.01
Kp at 90 min (in vivo; po, 50 mg/kg, R (ratio of concentration between CSF and bloodstream) at CSF Tmax): ~0.02
Tmax (in vivo; po, 50 mg/kg, bloodstream): 60 min
Tmax (in vivo; [5]): 90 min
